Results published in the NIST ThermoML archive (doi:10.1021/acs.jced.7b01033).

Legend:
[1] = 100.5 kPa, Liquid, Vibrating tube method
[2] = xn = mol fraction of the nth substance listed; settings: 100.5 kPa, Liquid, Vibrating tube method

CCCCCCn1cc[n+](C)c1C.O=S(=O)([N-]S(=O)(=O)C(F)(F)F)C(F)(F)F
[1]
Settings | mass density [kg/m3]
293.15 K | 1362.2
303.15 K | 1353.1
313.15 K | 1344.1
323.15 K | 1335.2
333.15 K | 1326.3
343.15 K | 1317.5
353.15 K | 1308.7

CCCCn1cc[n+](C)c1C.O=S(=O)([N-]S(=O)(=O)C(F)(F)F)C(F)(F)F
[1]
Settings | mass density [kg/m3]
293.15 K | 1424
303.15 K | 1414.6
313.15 K | 1405.3
323.15 K | 1396
333.15 K | 1386.9
343.15 K | 1377.8
353.15 K | 1368.7

CCC[n+]1ccn(C)c1C.O=S(=O)([N-]S(=O)(=O)C(F)(F)F)C(F)(F)F
[1]
Settings | mass density [kg/m3]
293.15 K | 1460
303.15 K | 1450.3
313.15 K | 1440.7
323.15 K | 1431.2
333.15 K | 1421.7
343.15 K | 1412.4
353.15 K | 1403

CCn1cc[n+](C)c1C.O=S(=O)([N-]S(=O)(=O)C(F)(F)F)C(F)(F)F
[1]
Settings | mass density [kg/m3]
293.15 K | 1496.4
303.15 K | 1486.7
313.15 K | 1476.9
323.15 K | 1467.3
333.15 K | 1457.7
343.15 K | 1448.2
353.15 K | 1438.8

CCCCCCn1cc(C)[n+](C)c1CC.O=S(=O)([N-]S(=O)(=O)C(F)(F)F)C(F)(F)F + CCCCCC[n+]1c(C)cn(C)c1CC.O=S(=O)([N-]S(=O)(=O)C(F)(F)F)C(F)(F)F
[2], x1 = 0.813
Settings | mass density [kg/m3]
293.15 K | 1325.2
303.15 K | 1316.2
313.15 K | 1307.3
323.15 K | 1298.5
333.15 K | 1289.7
343.15 K | 1281
353.15 K | 1272.3

CCCCCCn1cc(C)[n+](C)c1.O=S(=O)([N-]S(=O)(=O)C(F)(F)F)C(F)(F)F + CCCCCC[n+]1cn(C)cc1C.O=S(=O)([N-]S(=O)(=O)C(F)(F)F)C(F)(F)F
[2], x1 = 0.637
Settings | mass density [kg/m3]
293.15 K | 1352.5
303.15 K | 1343.3
313.15 K | 1334.2
323.15 K | 1325.2
333.15 K | 1316.3
343.15 K | 1307.4
353.15 K | 1298.5

CCCCn1cc(C)[n+](C)c1.O=S(=O)([N-]S(=O)(=O)C(F)(F)F)C(F)(F)F + CCCC[n+]1cn(C)cc1C.O=S(=O)([N-]S(=O)(=O)C(F)(F)F)C(F)(F)F
[2], x1 = 0.637
Settings | mass density [kg/m3]
313.15 K | 1391.1
323.15 K | 1381
333.15 K | 1372.3
343.15 K | 1363.1
353.15 K | 1353.9

CCCCn1cc(C)[n+](C)c1CC.O=S(=O)([N-]S(=O)(=O)C(F)(F)F)C(F)(F)F + CCCCn1c(C)c[n+](C)c1CC.O=S(=O)([N-]S(=O)(=O)C(F)(F)F)C(F)(F)F
[2], x1 = 0.806
Settings | mass density [kg/m3]
293.15 K | 1371.2
303.15 K | 1361.9
313.15 K | 1352.8
323.15 K | 1343.7
333.15 K | 1334.7
343.15 K | 1325.8
353.15 K | 1316.9

CCC[n+]1cc(C)n(C)c1CC.O=S(=O)([N-]S(=O)(=O)C(F)(F)F)C(F)(F)F + CCC[n+]1c(C)cn(C)c1CC.O=S(=O)([N-]S(=O)(=O)C(F)(F)F)C(F)(F)F
[2], x1 = 0.763
Settings | mass density [kg/m3]
293.15 K | 1401.2
303.15 K | 1391.7
313.15 K | 1382.3
323.15 K | 1373
333.15 K | 1363.8
343.15 K | 1354.7
353.15 K | 1345.5

CCCn1cc(C)[n+](C)c1.O=S(=O)([N-]S(=O)(=O)C(F)(F)F)C(F)(F)F + CCCn1c[n+](C)cc1C.O=S(=O)([N-]S(=O)(=O)C(F)(F)F)C(F)(F)F
[2], x1 = 0.629
Settings | mass density [kg/m3]
293.15 K | 1445.4
303.15 K | 1435.6
313.15 K | 1425.9
323.15 K | 1416.3
333.15 K | 1406.9
343.15 K | 1397.3
353.15 K | 1387.9

CC[n+]1cc(C)n(C)c1.O=S(=O)([N-]S(=O)(=O)C(F)(F)F)C(F)(F)F + CC[n+]1cn(C)cc1C.O=S(=O)([N-]S(=O)(=O)C(F)(F)F)C(F)(F)F
[2], x1 = 0.602
Settings | mass density [kg/m3]
293.15 K | 1483.2
303.15 K | 1473.3
313.15 K | 1463.4
323.15 K | 1453.6
333.15 K | 1443.9
343.15 K | 1434.2
353.15 K | 1424.6

CCc1n(C)c(C)c[n+]1CC.O=S(=O)([N-]S(=O)(=O)C(F)(F)F)C(F)(F)F + CCc1n(C)cc(C)[n+]1CC.O=S(=O)([N-]S(=O)(=O)C(F)(F)F)C(F)(F)F
[2], x1 = 0.735
Settings | mass density [kg/m3]
293.15 K | 1431.7
303.15 K | 1422
313.15 K | 1412.6
323.15 K | 1403.1
333.15 K | 1393.8
343.15 K | 1384.6
353.15 K | 1375.3
